The record followed here is the Deep4Chem optical property database.

Each structure is given as a SMILES string.

This data set in a line: solvent given as SMILES.

In turn, `Cc1cc(C)c(B(c2cc3ccc4cccc5ccc(c2)c3c45)c2c(C)cc(C)cc2C)c(C)c1` had an absorption maximum (in Cc1ccccc1) of 413 nm.

With `CCn1c2ccccc2c2c(C#N)c3c(ccc4c3cnn4C)nc21`, where the note is “in CCOC(C)=O”, the absorption maximum is 383 nm.

Take `N#Cc1cnc(-c2c3ccccc3cc3ccccc23)nc1`: the absorption maximum is recorded as 382 nm (in CCO) and 385 nm (in ClCCl).

Where the note is “in C1CCOC1”, `CC1=C(C#Cc2ccc(N(c3ccccc3)c3ccccc3)cc2)C(C)=[N+]2C1=C(c1ccccc1)c1c(C)c(C#Cc3ccc(N(c4ccccc4)c4ccccc4)cc3)c(C)n1[B-]2(F)F` had an absorption maximum of 593 nm.

As to `CN(C)c1ccc(-c2ccc(-c3cc(-c4ccccc4)c(-c4ccccc4)c(-c4ccccc4)c3-c3ccccc3)s2)cc1`, the absorption maximum (in ClC(Cl)Cl) was found to be 362 nm.

Consider `CCN(CC)c1ccc2cc3ccc(=[N+](CC)CC)cc-3oc2c1`, for which the absorption maximum runs as follows: (in CC#N) 525 nm; (in CCO) 526 nm; (in CN(C)C=O) 535 nm; (in O) 550 nm.

The compound `COc1ccc(-n2nc(C(=O)c3ccc(Cl)cc3)c(N3CCCC3)n2)cc1` yielded an absorption maximum (in CC#N) of 381 nm.

Take `COc1ccc(-n2c(C)ccc2C)cc1`: the absorption maximum was 224 nm (in CC#N) and 222 nm (in CCCCCC).

As to `O=c1oc2ccc(Cl)cc2cc1-c1cc2cc(Cl)ccc2o1`, the absorption maximum stood at 369 nm (in CC#N); 370 nm (in CCOC(C)=O); 373 nm (in CS(C)=O); 375 nm (in Cc1ccccc1); 327 nm (in O).

The compound `CCCCN1C(=O)c2cc(Oc3ccc(C(C)(C)C)cc3)c3c4c(Oc5ccc(C(C)(C)C)cc5)c(Oc5ccc(C(C)(C)C)cc5)c5c6c(cc(Oc7ccc(C(C)(C)C)cc7)c(c7c(Oc8ccc(C(C)(C)C)cc8)c(Oc8ccc(C(C)(C)C)cc8)c(c2c37)C1=O)c64)C(=O)N(CCCC)C5=O` showed an absorption maximum (in ClC(Cl)Cl) of 570 nm.

Regarding `CCOC(=O)CN1C(=O)C2=C(c3ccccc3)N(CC(=O)OCC)C(=O)C2=C1c1ccccc1`, the absorption maximum reads like this: (in CC#N) 454 nm; (in CS(C)=O) 460 nm; (in Cc1ccccc1) 462 nm.

As to `COc1cc(OC)cc(C2=[O+][B-](F)(F)OC(c3ccc4cc(OC)ccc4c3)=C2)c1`, for the setting “in ClCCl”, the absorption maximum came to 427 nm.

The compound `CCN(CC)c1cc2sc3cc(N(CC)CC)c(F)cc3c(=O)c2cc1F` yielded an absorption maximum (in CCO) of 393 nm.

Regarding `CCCCCCOc1cc(N(CC)CC)ccc1/C=C(\C#N)c1ccc(/C=C/C(=C(C#N)C#N)c2ccc3c(c2)c2ccccc2n3CC)s1`, the absorption maximum (in ClCCl) turned out to be 570 nm.

As for `F[B-]1(F)OC(c2ccccc2)=Nc2sc(-c3ccccc3)n[n+]21`, the absorption maximum by setting is: (in C1CCOC1) 332 nm; (in CC#N) 330 nm; (in CCO) 328 nm; (in CCOC(C)=O) 331 nm; (in Cc1ccccc1) 337 nm; (in ClC(Cl)Cl) 335 nm. This compound also showed an absorption maximum (in ClCCl) of 333 nm.

`CN(C)c1c2ccccc2cc2ccccc12` displayed an absorption maximum (in C1CCCCC1) of 386 nm; an absorption maximum (in C1CCOC1) of 386 nm; an absorption maximum (in C1COCCO1) of 387 nm; an absorption maximum (in CC#N) of 386 nm; an absorption maximum (in CCO) of 385 nm; an absorption maximum (in CN(C)C=O) of 388 nm. The absorption maximum was determined as 384 nm (in CO); 386 nm (in COCCOC); 390 nm (in CS(C)=O); 385 nm (in O); 393 nm (in OCC(O)CO); 388 nm (in OCCO).

Take `Oc1c(-c2ccco2)cccc1-c1nc2ccccc2s1`: the absorption maximum was 360 nm (in ClCCl) and 360 nm (in O).

With `CC1(C)C(/C=C/C=C/C=C/C=C2/N(c3ccc(S(=O)(=O)[O-])cc3)c3ccc(S(=O)(=O)[O-])cc3C2(C)C)=[N+](c2ccc(S(=O)(=O)[O-])cc2)c2ccc(S(=O)(=O)[O-])cc21`, the absorption maximum by setting is: (in CO) 759 nm; (in O) 754 nm.

Compound `O=P(c1ccccc1)(c1ccccc1)c1cccc(-n2c(-c3ccccc3P(=O)(c3ccccc3)c3ccccc3)nc3ccccc32)c1` yielded an absorption maximum (in ClCCl) of 300 nm.

`c1ccc2c(c1)oc1nc3oc4ccc(-n5c6ccccc6c6ccccc65)cc4c3cc12`: where the note is “in ClC(Cl)Cl”, the absorption maximum was determined as 346 nm.

The compound `Cc1ccc(C)n1-c1cccc(C#N)c1` gave an absorption maximum (in ClCCl) of 259 nm.

The compound `[O-]c1ccccc1/C=N/c1ccccc1/N=C/c1ccccc1[O-]` displayed an absorption maximum (in C1CCOC1) of 380 nm.

Under “in C1COCCO1”, `c1ccc(-c2cc(-c3ccccc3)cc(-c3ccccc3)c2)cc1` returned an absorption maximum of 250 nm.

For `CC(C)c1cc(C(C)C)c(B2c3ccccc3Oc3cc(N4c5ccccc5C5(c6ccccc6-c6ccccc65)c5ccccc54)ccc32)c(C(C)C)c1`, the absorption maximum (in Cc1ccccc1) is recorded as 430 nm.

Under “in ClCCl”, `CCCCCCCCCCn1c(-c2cc(-c3nc4ccccc4n3CCCCCCCCCC)cc(-c3nc4ccccc4n3CCCCCCCCCC)c2)nc2ccccc21` had an absorption maximum of 299.5 nm.

In turn, `c1ccc(-c2nc(-c3ccc(N(c4ccccc4)c4ccccc4)cc3)n3ccccc23)cc1` returned an absorption maximum (in C1CCCCC1) of 352 nm; an absorption maximum (in CC#N) of 350 nm; an absorption maximum (in CO) of 348 nm; an absorption maximum (in ClCCl) of 353 nm; an absorption maximum (in O) of 360 nm.

In the case of `COc1ccc(-c2csc(/C(C#N)=C/c3ccc([N+](=O)[O-])cc3)n2)cc1`, the absorption maximum (in CC#N) came to 399 nm.

For `CCCCC(CC)COc1ccc2nc(-c3ccc(-c4c(C)noc4C)s3)sc2c1` (stereo not given), the absorption maximum (in ClCCl) was determined as 359 nm.

Compound `Cc1c2c(nc3ccccc13)-c1cc3c(cc1CC2)-c1nc2ccccc2c(C)c1CC3` had an absorption maximum (in ClC(Cl)Cl) of 372 nm.

In the case of `COc1ccc(N(c2ccc(OC)cc2)c2ccc(-c3ccc(C=C(C#N)C#N)cc3)cc2)cc1`, where the note is “in ClC(Cl)Cl”, the absorption maximum worked out at 483 nm.

Take `C[Si]1(C)O[Si](C)(C)c2cc3nc4ccc([N+](=O)[O-])cc4c(-c4ccccc4)c3cc2[Si](C)(C)O1`: the absorption maximum (in ClCCl) turned out to be 376 nm.

On to `O=Cc1nc2ccc(C#Cc3ccc(N(c4ccccc4)c4ccccc4)cc3)cc2s1`, for which, where the note is “in Cc1ccccc1”, the absorption maximum is 412 nm.

Consider `CCN(CC)c1ccc2c(c1)OC1=C(/C=C/C3=[N+](C)c4ccccc4C3(C)C)CCCC1=C2c1ccccc1C(=O)O`, for which the absorption maximum (in CC#N) is given as 708 nm, the absorption maximum (in CCO) was 700 nm, the absorption maximum (in CO) is recorded as 700 nm and the absorption maximum (in ClC(Cl)Cl) amounted to 716 nm.

`COc1ccc(-c2oc3cccc4c5c(-c6ccc(OC)cc6)c(=N)oc6cccc(c2c34)c65)cc1` came in with an absorption maximum (in ClC(Cl)Cl) of 408 nm.

With `CCC1=C(C)C2=C(C)c3c(I)c(I)c(I)n3[B-](F)(F)[N+]2=C1C`, the absorption maximum is, setting by setting: (in C1CCCCC1) 531.5 nm; (in CC(C)=O) 517.5 nm; (in CCO) 522 nm; (in CCOC(C)=O) 521 nm; (in CO) 519.5 nm; (in OCC(F)(F)F) 511.5 nm.

In turn, `C1=C(c2ccccc2)C=C(c2ccccc2)/C1=C/c1ccc2c(c1)Cc1ccccc1-2` returned an absorption maximum (in C1CCOC1) of 384 nm.

For the compound `O=c1[nH]c2[n+](c3ccccc13)[B-](F)(F)Oc1ccccc1-2`, the absorption maximum is, setting by setting: (in CC#N) 343 nm; (in Cc1ccccc1) 354 nm.

Regarding `c1cc2ccc3ccc4cc3c2cc1CCCCCCc1ccc2ccc3ccc-4cc3c2c1`, the absorption maximum (in Cc1ccccc1) was 336 nm.

Consider `CCC1(CC)c2ccccc2-c2c1c1c(c3c2C(CC)(CC)c2cc(/C=C/c4cccs4)ccc2-3)C(CC)(CC)c2ccccc2-1`, for which the absorption maximum (in C1CCOC1) came out at 382 nm.

With `O=C1/C(=C2\Sc3ccccc3C2=O)Sc2ccccc21`, the absorption maximum runs as follows: (in C1COCCO1) 536 nm; (in CN(C)C=O) 543 nm; (in CO) 538 nm; (in CS(C)=O) 545 nm; (in c1ccccc1) 544 nm.

As to `Cc1cc(=O)oc2cc(/[NH+]=C/C=C3/C=C(C(=O)O)NC(C(=O)O)C3)ccc12` (stereo not given), the absorption maximum (in O) was 520 nm.

In turn, `CCCCCCc1cc2c(=O)c3cc(CCCCCC)cc4c(=O)c5cc(CCCCCC)cc6c(=O)c(c1)c2n(c34)c65` gave an absorption maximum (in ClCCl) of 424 nm.

`C(=C\c1cc(-c2ccccc2)c(/C=C/c2ccc(N(c3ccccc3)c3ccccc3)cc2)cc1-c1ccccc1)/c1ccc(N(c2ccccc2)c2ccccc2)cc1` registered an absorption maximum (in ClCCl) of 415 nm.

Take `O=[N+]([O-])c1ccc(C#Cc2ccc3ccccc3c2)cc1`: the absorption maximum runs as follows: (in ClC(Cl)Cl) 338 nm; (in ClCCl) 339 nm.

In turn, `CCCN1/C(=C/C=C(/C=C/C2=[N+](CCC)c3ccccc3C2(C)C)c2cc[n+](C)cc2)C(C)(C)c2ccccc21` displayed an absorption maximum (in CO) of 627 nm, an absorption maximum (in CS(C)=O) of 637 nm and an absorption maximum (in O) of 626 nm.

On to `CN(C)c1ccc(/C=C/C=C/C2=NC3C(=O)NC(N)=NC3N2[C@H]2C[C@H](O)[C@@H](CO)O2)cc1` (stereo not given in full), for which the absorption maximum is, setting by setting: (in C1COCCO1) 352 nm; (in CC#N) 349 nm; (in CO) 343 nm.

In the case of `CCN(CC)c1ccc2c(c1)oc(=O)c1cnc3c(c(C)nn3-c3ccccc3)c12`, the absorption maximum (in ClCCl) is recorded as 404 nm.

For the setting “in Cc1ccccc1”, `COc1cc2c3c4c(c5ccc(C(C)(C)C)cc5c5c(OC)cc(OC)c(c2c(OC)c1OC)c45)=[N+]1C3=Nc2c3c4cc(OC)c(OC)c(OC)c4c4c(OC)cc(OC)c5c6cc(C(C)(C)C)ccc6c(c3c54)n2[B-]1(F)F` yielded an absorption maximum of 878 nm.

Consider `COc1ccc(O)cc1C=O`, for which the absorption maximum reads like this: (in CO) 355 nm; (in ClC(Cl)Cl) 349 nm.

As for `Cc1ccc(-c2nc3c([nH]2)C2=CC(=O)S[C@]2(C)[C@@]2(C)SC(=O)C=C32)cc1`, for the setting “in CC#N”, the absorption maximum worked out at 455 nm.

On to `C(#Cc1c2ccccc2c(-c2ccccc2)c2cc3ccccc3cc12)c1ccccc1`, for which, for the setting “in ClCCl”, the absorption maximum amounted to 522 nm.

Under “in Cc1ccccc1”, `CC(C)(C)c1cc2c(c(C(C)(C)C)c1)O[B-](F)(F)[n+]1c-2nc(-c2ccccc2)c2ccccc21` registered an absorption maximum of 410 nm.
